Assay results: PMC6422671 (British Journal of Clinical Pharmacology, 2019)

Experiment: Clinical laboratory findings: chemistry; data mean (standard deviation)
Assay type: in vivo, healthy men
From the text: Data are mean (standard deviation).

Q: With C[C@@H](N)c1cc(Cl)ccc1Cn1c(=S)[nH]c(=O)c2[nH]ccc21 [AZD4831] as the compound, how does the ALP (5 mg fasted, 24 h) read?
A: 0.997 (0.210) µkat L^–1

Q: What about the ALT (5 mg fasted, 24 h) of the same compound?
A: 0.397 (0.159) µkat L^–1

Q: And the AST (5 mg fasted, 24 h)?
A: 0.370 (0.103) µkat L^–1

Q: What about the Albumin (5 mg fasted, 24 h) of the same compound?
A: 42.6 (2.4) g L^–1

Q: What about the Bilirubin (5 mg fasted, 24 h) of the same compound?
A: 12.3 (2.6) µmol L^–1

Q: What about the CRP (5 mg fasted, 24 h) of the same compound?
A: 0.38 (0.22) mg L^–1

Q: And the Calcium (5 mg fasted, 24 h)?
A: 2.36 (0.04) mmol L^–1

Q: What about the Creatinine (5 mg fasted, 24 h) of the same compound?
A: 82.2 (10.3) µmol L^–1

Q: And the GGT (5 mg fasted, 24 h)?
A: 0.288 (0.103) µkat L^–1

Q: And the Glucose (5 mg fasted, 24 h)?
A: 4.69 (0.32) mmol L^–1

Q: And the Phosphate (5 mg fasted, 24 h)?
A: 1.12 (0.09) mmol L^–1

Q: What about the Potassium (5 mg fasted, 24 h) of the same compound?
A: 4.14 (0.23) mmol L^–1

Q: And the Sodium (5 mg fasted, 24 h)?
A: 136.3 (0.8) mmol L^–1

Q: What about the Urea (5 mg fasted, 24 h) of the same compound?
A: 4.66 (0.90) mmol L^–1

Q: And the ALP (5 mg fasted, 48 h)?
A: 0.989 (0.186) µkat L^–1

Q: And the ALT (5 mg fasted, 48 h)?
A: 0.405 (0.142) µkat L^–1

Q: And the AST (5 mg fasted, 48 h)?
A: 0.357 (0.077) µkat L^–1

Q: And the Albumin (5 mg fasted, 48 h)?
A: 43.3 (2.1) g L^–1

Q: What about the Bilirubin (5 mg fasted, 48 h) of the same compound?
A: 10.6 (2.3) µmol L^–1

Q: And the CRP (5 mg fasted, 48 h)?
A: 0.48 (0.40) mg L^–1

Q: What about the Calcium (5 mg fasted, 48 h) of the same compound?
A: 2.38 (0.04) mmol L^–1

Q: What about the Creatinine (5 mg fasted, 48 h) of the same compound?
A: 80.9 (4.7) µmol L^–1

Q: And the GGT (5 mg fasted, 48 h)?
A: 0.287 (0.105) µkat L^–1

Q: And the Glucose (5 mg fasted, 48 h)?
A: 4.76 (0.32) mmol L^–1

Q: What about the Phosphate (5 mg fasted, 48 h) of the same compound?
A: 0.99 (0.12) mmol L^–1

Q: What about the Potassium (5 mg fasted, 48 h) of the same compound?
A: 4.23 (0.16) mmol L^–1

Q: And the Sodium (5 mg fasted, 48 h)?
A: 137.5 (0.6) mmol L^–1

Q: And the Urea (5 mg fasted, 48 h)?
A: 4.52 (1.08) mmol L^–1

Q: And the ALP (5 mg fasted, follow up)?
A: 1.094 (0.227) µkat L^–1

Q: What about the ALT (5 mg fasted, follow up) of the same compound?
A: 0.407 (0.063) µkat L^–1

Q: And the AST (5 mg fasted, follow up)?
A: 0.413 (0.097) µkat L^–1

Q: What about the Albumin (5 mg fasted, follow up) of the same compound?
A: 45.3 (1.3) g L^–1

Q: And the Bilirubin (5 mg fasted, follow up)?
A: 12.5 (3.3) µmol L^–1

Q: And the CRP (5 mg fasted, follow up)?
A: 1.27 (1.43) mg L^–1

Q: And the Calcium (5 mg fasted, follow up)?
A: 2.42 (0.04) mmol L^–1

Q: And the Creatinine (5 mg fasted, follow up)?
A: 84.8 (9.1) µmol L^–1

Q: And the GFR (5 mg fasted, follow up)?
A: 98 (15) mL min^–1 1.73m^–2

Q: What about the GGT (5 mg fasted, follow up) of the same compound?
A: 0.307 (0.093) µkat L^–1

Q: And the Glucose (5 mg fasted, follow up)?
A: 4.78 (0.68) mmol L^–1

Q: And the Phosphate (5 mg fasted, follow up)?
A: 1.11 (0.10) mmol L^–1

Q: What about the Potassium (5 mg fasted, follow up) of the same compound?
A: 4.32 (0.22) mmol L^–1

Q: And the Sodium (5 mg fasted, follow up)?
A: 138.4 (1.5) mmol L^–1

Q: What about the Urea (5 mg fasted, follow up) of the same compound?
A: 4.57 (1.29) mmol L^–1

Q: What about the ALP (15 mg fasted, 24 h) of the same compound?
A: 1.165 (0.364) µkat L^–1

Q: What about the ALT (15 mg fasted, 24 h) of the same compound?
A: 0.475 (0.222) µkat L^–1

Q: What about the AST (15 mg fasted, 24 h) of the same compound?
A: 0.394 (0.098) µkat L^–1

Q: And the Albumin (15 mg fasted, 24 h)?
A: 43.2 (2.7) g L^–1

Q: What about the Bilirubin (15 mg fasted, 24 h) of the same compound?
A: 14.5 (6.3) µmol L^–1

Q: What about the CRP (15 mg fasted, 24 h) of the same compound?
A: 0.53 (0.28) mg L^–1

Q: What about the Calcium (15 mg fasted, 24 h) of the same compound?
A: 2.35 (0.11) mmol L^–1

Q: And the Creatinine (15 mg fasted, 24 h)?
A: 76.2 (10.7) µmol L^–1

Q: What about the GGT (15 mg fasted, 24 h) of the same compound?
A: 0.504 (0.232) µkat L^–1

Q: What about the Glucose (15 mg fasted, 24 h) of the same compound?
A: 4.57 (0.21) mmol L^–1

Q: What about the Phosphate (15 mg fasted, 24 h) of the same compound?
A: 1.14 (0.14) mmol L^–1

Q: And the Potassium (15 mg fasted, 24 h)?
A: 4.12 (0.24) mmol L^–1

Q: And the Sodium (15 mg fasted, 24 h)?
A: 137.5 (1.0) mmol L^–1

Q: And the Urea (15 mg fasted, 24 h)?
A: 4.35 (0.61) mmol L^–1

Q: And the ALP (15 mg fasted, 48 h)?
A: 1.159 (0.329) µkat L^–1

Q: What about the ALT (15 mg fasted, 48 h) of the same compound?
A: 0.515 (0.255) µkat L^–1

Q: And the AST (15 mg fasted, 48 h)?
A: 0.406 (0.116) µkat L^–1

Q: What about the Albumin (15 mg fasted, 48 h) of the same compound?
A: 44.2 (2.6) g L^–1

Q: What about the Bilirubin (15 mg fasted, 48 h) of the same compound?
A: 13.6 (6.0) µmol L^–1

Q: And the CRP (15 mg fasted, 48 h)?
A: 0.62 (0.40) mg L^–1

Q: What about the Calcium (15 mg fasted, 48 h) of the same compound?
A: 2.37 (0.10) mmol L^–1

Q: And the Creatinine (15 mg fasted, 48 h)?
A: 75.9 (12.3) µmol L^–1

Q: What about the GGT (15 mg fasted, 48 h) of the same compound?
A: 0.501 (0.243) µkat L^–1

Q: And the Glucose (15 mg fasted, 48 h)?
A: 4.72 (0.23) mmol L^–1

Q: What about the Phosphate (15 mg fasted, 48 h) of the same compound?
A: 1.11 (0.16) mmol L^–1

Q: And the Potassium (15 mg fasted, 48 h)?
A: 4.23 (0.25) mmol L^–1

Q: And the Sodium (15 mg fasted, 48 h)?
A: 138.8 (0.8) mmol L^–1

Q: What about the Urea (15 mg fasted, 48 h) of the same compound?
A: 4.30 (0.74) mmol L^–1

Q: And the ALP (15 mg fasted, follow up)?
A: 1.240 (0.380) µkat L^–1

Q: And the ALT (15 mg fasted, follow up)?
A: 0.504 (0.193) µkat L^–1

Q: And the AST (15 mg fasted, follow up)?
A: 0.420 (0.085) µkat L^–1

Q: And the Albumin (15 mg fasted, follow up)?
A: 45.2 (3.1) g L^–1

Q: What about the Bilirubin (15 mg fasted, follow up) of the same compound?
A: 11.3 (5.5) µmol L^–1

Q: What about the CRP (15 mg fasted, follow up) of the same compound?
A: 1.37 (0.47) mg L^–1

Q: What about the Calcium (15 mg fasted, follow up) of the same compound?
A: 2.38 (0.14) mmol L^–1

Q: And the Creatinine (15 mg fasted, follow up)?
A: 78.4 (9.8) µmol L^–1

Q: And the GFR (15 mg fasted, follow up)?
A: 114 (12) mL min^–1 1.73m^–2

Q: And the GGT (15 mg fasted, follow up)?
A: 0.534 (0.262) µkat L^–1

Q: What about the Glucose (15 mg fasted, follow up) of the same compound?
A: 4.62 (0.45) mmol L^–1

Q: And the Phosphate (15 mg fasted, follow up)?
A: 1.15 (0.08) mmol L^–1

Q: And the Potassium (15 mg fasted, follow up)?
A: 4.39 (0.30) mmol L^–1

Q: And the Sodium (15 mg fasted, follow up)?
A: 136.9 (1.1) mmol L^–1

Q: What about the Urea (15 mg fasted, follow up) of the same compound?
A: 4.79 (1.46) mmol L^–1

Q: And the ALP (45 mg fasted, 24 h)?
A: 1.061 (0.228) µkat L^–1

Q: What about the ALT (45 mg fasted, 24 h) of the same compound?
A: 0.329 (0.098) µkat L^–1

Q: What about the AST (45 mg fasted, 24 h) of the same compound?
A: 0.293 (0.069) µkat L^–1

Q: And the Albumin (45 mg fasted, 24 h)?
A: 41.6 (2.4) g L^–1

Q: What about the Bilirubin (45 mg fasted, 24 h) of the same compound?
A: 12.0 (3.5) µmol L^–1

Q: And the CRP (45 mg fasted, 24 h)?
A: 0.77 (0.71) mg L^–1

Q: And the Calcium (45 mg fasted, 24 h)?
A: 2.34 (0.05) mmol L^–1

Q: What about the Creatinine (45 mg fasted, 24 h) of the same compound?
A: 75.8 (7.2) µmol L^–1

Q: What about the GGT (45 mg fasted, 24 h) of the same compound?
A: 0.315 (0.072) µkat L^–1

Q: And the Glucose (45 mg fasted, 24 h)?
A: 4.90 (0.29) mmol L^–1

Q: What about the Phosphate (45 mg fasted, 24 h) of the same compound?
A: 1.17 (0.08) mmol L^–1

Q: What about the Potassium (45 mg fasted, 24 h) of the same compound?
A: 4.29 (0.10) mmol L^–1

Q: And the Sodium (45 mg fasted, 24 h)?
A: 139.2 (1.7) mmol L^–1

Q: And the Urea (45 mg fasted, 24 h)?
A: 4.25 (0.47) mmol L^–1

Q: What about the ALP (45 mg fasted, 48 h) of the same compound?
A: 1.097 (0.257) µkat L^–1

Q: What about the ALT (45 mg fasted, 48 h) of the same compound?
A: 0.319 (0.095) µkat L^–1

Q: What about the AST (45 mg fasted, 48 h) of the same compound?
A: 0.288 (0.074) µkat L^–1

Q: What about the Albumin (45 mg fasted, 48 h) of the same compound?
A: 42.5 (2.7) g L^–1

Q: What about the Bilirubin (45 mg fasted, 48 h) of the same compound?
A: 12.3 (3.3) µmol L^–1

Q: What about the CRP (45 mg fasted, 48 h) of the same compound?
A: 0.58 (0.49) mg L^–1

Q: And the Calcium (45 mg fasted, 48 h)?
A: 2.34 (0.05) mmol L^–1

Q: And the Creatinine (45 mg fasted, 48 h)?
A: 73.2 (6.4) µmol L^–1

Q: What about the GGT (45 mg fasted, 48 h) of the same compound?
A: 0.312 (0.064) µkat L^–1

Q: What about the Glucose (45 mg fasted, 48 h) of the same compound?
A: 5.06 (0.19) mmol L^–1

Q: What about the Phosphate (45 mg fasted, 48 h) of the same compound?
A: 1.12 (0.09) mmol L^–1

Q: What about the Potassium (45 mg fasted, 48 h) of the same compound?
A: 4.18 (0.20) mmol L^–1

Q: And the Sodium (45 mg fasted, 48 h)?
A: 140.9 (2.2) mmol L^–1

Q: And the Urea (45 mg fasted, 48 h)?
A: 4.24 (0.55) mmol L^–1

Q: And the ALP (45 mg fasted, follow up)?
A: 1.165 (0.282) µkat L^–1

Q: What about the ALT (45 mg fasted, follow up) of the same compound?
A: 0.324 (0.059) µkat L^–1

Q: And the AST (45 mg fasted, follow up)?
A: 0.356 (0.054) µkat L^–1

Q: What about the Albumin (45 mg fasted, follow up) of the same compound?
A: 44.1 (2.6) g L^–1

Q: And the Bilirubin (45 mg fasted, follow up)?
A: 12.9 (5.6) µmol L^–1

Q: And the CRP (45 mg fasted, follow up)?
A: 2.89 (5.30) mg L^–1

Q: And the Calcium (45 mg fasted, follow up)?
A: 2.35 (0.04) mmol L^–1

Q: And the Creatinine (45 mg fasted, follow up)?
A: 74.6 (9.2) µmol L^–1

Q: What about the GFR (45 mg fasted, follow up) of the same compound?
A: 112 (12) mL min^–1 1.73m^–2

Q: And the GGT (45 mg fasted, follow up)?
A: 0.300 (0.052) µkat L^–1

Q: What about the Glucose (45 mg fasted, follow up) of the same compound?
A: 4.84 (0.54) mmol L^–1

Q: And the Phosphate (45 mg fasted, follow up)?
A: 1.12 (0.20) mmol L^–1

Q: What about the Potassium (45 mg fasted, follow up) of the same compound?
A: 4.18 (0.18) mmol L^–1

Q: What about the Sodium (45 mg fasted, follow up) of the same compound?
A: 139.5 (1.3) mmol L^–1

Q: And the Urea (45 mg fasted, follow up)?
A: 3.90 (0.63) mmol L^–1
